PMC12291851, “Hydrogen Sulfide (H2S)-Donating Formyl Peptide Receptor 2 (FPR2) Agonists: Design, Synthesis, and Biological Evaluation in Primary Mouse Microglia Culture” (Antioxidants, 2025)

What was measured:
FPR2 [1] = molecular target: T1, FPR2 (Homo sapiens, UniProt P25090); experiment: cell-based
T1 sequence (P25090 1-351): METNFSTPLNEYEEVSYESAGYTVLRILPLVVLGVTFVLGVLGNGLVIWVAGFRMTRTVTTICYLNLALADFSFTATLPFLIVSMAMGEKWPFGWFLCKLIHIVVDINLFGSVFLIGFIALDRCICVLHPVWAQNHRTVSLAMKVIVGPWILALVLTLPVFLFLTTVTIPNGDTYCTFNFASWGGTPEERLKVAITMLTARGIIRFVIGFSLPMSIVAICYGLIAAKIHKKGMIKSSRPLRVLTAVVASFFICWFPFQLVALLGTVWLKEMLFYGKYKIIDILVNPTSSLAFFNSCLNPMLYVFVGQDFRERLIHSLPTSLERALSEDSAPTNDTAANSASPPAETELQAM

IL-10 = IL-10 ELISA in medium of microglial cultures; format: cell-based, mouse; conditions: 1 μM pretreatment 1 h, then LPS 0.1 μg/mL 24 h
Protocol: (§1) Primary microglial cell cultures were derived from the cortices of 1–2-day-old mouse pups (1pup/1 brain/1 flask). After decapitation, the brains were extracted and immediately placed in cold Hanks’ Balanced Salt Solution (HBSS, Gibco, New York, NY, USA) on ice. The brains were washed at least three times with 7 mL of HBSS and then transferred to 10 mL of fresh culture media consisting of Dulbecco’s Modified Eagle Medium (DMEM) with GlutaMax and high glucose (4.5 g/L) (Gibco, New York, NY, USA) on ice. The tissue was minced and incubated in HBSS containing glucose, bovine serum albumin (BSA; Sigma-Aldrich, St. Louis, MO, USA), and HEPES (Gibco, New York, NY, USA) with 0.025% trypsin at 37 °C for 20 min. […] The purity of microglial cell cultures was assessed as we have shown previously. […]
(§2) To assess the effect of test compounds on IL-18, IL-6, and IL-10 levels, the medium of microglial cell cultures was collected 24 h after LPS treatment. The protein levels of the cytokines IL-18 (Mouse interleukin 18 ELISA kit), IL-6 (Mouse interleukin 6 ELISA kit), and IL-10 (Mouse interleukin 10 ELISA kit; all obtained from FineTest, Wuhan, China) were measured using commercially available enzyme-linked immunosorbent assay kits according to the manufacturer’s instructions. […]

IL-18 = IL-18 ELISA in medium of microglial cultures; format: cell-based, mouse; conditions: 1 μM pretreatment 1 h, then LPS 0.1 μg/mL 24 h
Protocol: as §1, §2

FPR2 [2] = molecular target: T1, FPR2; experiment: FPR2 desensitization: inhibition of WKYMVM-induced Ca2+ mobilization in FPR2-HL60 cells; format: cell-based; set-up: expressed in transfected cells; host or cells: HL-60 cells; conditions: 10 min preincubation, then 5 nM WKYMVM
Source text: Finally, we assessed the ability of compounds to induce receptor desensitization at FPR2 by measuring the inhibition of Ca^2+ mobilization induced by subsequent treatment with a standard FPR2 agonist (IC50, Table 1) because FPR2 undergoes homologous desensitization after stimulation with agonists, resulting in functional antagonism (IC50, Table 1). […] We also evaluated the effects of the thiourea and thioamide derivatives on Ca^2+ mobilization in FPR1-HL60-transfected cells after stimulation with the FPR1 agonist (IC50, Table 1).

[3] = system: mouse primary microglial cells; experiment: NO release assay (Griess) in primary microglial cells; format: cell-based; conditions: for LPS-induced NO production: 1 μM pretreatment 1 h, then LPS 0.1 μg/mL 24 h; for NO levels under basal conditions: 1 μM, no LPS
Protocol: Primary microglial cell cultures were derived from the cortices of 1–2-day-old mouse pups (1pup/1 brain/1 flask). After decapitation, the brains were extracted and immediately placed in cold Hanks’ Balanced Salt Solution (HBSS, Gibco, New York, NY, USA) on ice. The brains were washed at least three times with 7 mL of HBSS and then transferred to 10 mL of fresh culture media consisting of Dulbecco’s Modified Eagle Medium (DMEM) with GlutaMax and high glucose (4.5 g/L) (Gibco, New York, NY, USA) on ice. The tissue was minced and incubated in HBSS containing glucose, bovine serum albumin (BSA; Sigma-Aldrich, St. Louis, MO, USA), and HEPES (Gibco, New York, NY, USA) with 0.025% trypsin at 37 °C for 20 min. The trypsinization was halted by adding DMEM with GlutaMax and high glucose (4.5 g/L) supplemented with 10% heat-inactivated fetal bovine serum (FBS, Gibco, New York, NY, USA). The tissue was then gently triturated to obtain a single-cell suspension. Cells were plated at a density of 3 × 10^5 cells/cm^2 in culture medium composed of DMEM with GlutaMax and high glucose (4.5 g/L), supplemented with 10% heat-inactivated FBS, 100 U/mL penicillin, and 0.1 mg/mL streptomycin (all from Gibco, New York, NY, USA), in poly-L-lysine-coated 75 cm^2 culture flasks. On the ninth day in vitro (maintained at 37 °C, 5% CO2), the flasks were agitated on a horizontal shaker for 1 h at 37 °C and 80 rpm. Following centrifugation, the cells were resuspended in culture medium and seeded at final densities of 1.25 × 10^6 cells/well in 6-well plates, 2 × 10^5 cells/well in 24-well plates, or 4 × 10^4 cells/well in 96-well plates. The purity of microglial cell cultures was assessed as we have shown previously.
Microglia cell cultures were pretreated with the FPR2 agonists 8b (1 µM) or 7b (1 µM) for 1 h and then stimulated with lipopolysaccharide (LPS; 0.1 μg/mL; Escherichia coli 0111:B4; Sigma-Aldrich, St. Louis, MO, USA) for 24 h. The concentration of 1 μM was chosen based on our preliminary data (Supplementary File). Control cultures were treated with the appropriate vehicle. […]
NO (nitrite ion in solution) production from LPS-treated microglial cells was measured using the Griess reaction, as previously described by. After 24 h of treatment, equal volumes of cell culture medium and Griess reagents (Griess A: 0.1% N-1-naphthylethylenediamine dihydrochloride and Griess B: 1% sulfanilamide in 5% phosphoric acid) were combined in a 96-well plate and the absorbance was read at 540 nm using an Infinite M200PRO microplate reader (TECAN, Männedorf, Switzerland). The results were normalized to the NO levels released by vehicle-treated cells (set at 100%) and expressed as a percentage of the control ± SD.

SMILES	EC50 (FPR2 [1]) [µM]	LPS-induced increase of IL-10 level (IL-10)	LPS-induced increase of IL-18 level (IL-18)	Ca2+ Mobilization HL60-FPR2 IC50 (FPR2 desensitization) (FPR2 [2])	IC50 (FPR2 [2]) [µM]	LPS-induced NO production [3]	NO levels under basal conditions [3]
N#Cc1ccc(C[C@H](NC(=O)Nc2ccc(F)cc2)C(=S)N2CCc3ccccc32)cc1 [7b, (S)-1-[3-(4-Cyanophenyl)-1-(indolin-1-yl)-1-thioxopropan-2-yl]-3-(4-fluorophenyl)urea]	0.6 ± 0.2	able to counterbalance the LPS-induced increase	able to counterbalance the LPS-induced increase	submicromolar concentration	0.06 ± 0.02	effectively attenuated	neither compound increased NO levels
N#Cc1ccc(C[C@H](NC(=O)Nc2ccc(Br)cc2)C(=S)N2CCc3ccccc32)cc1 [8b, (S)-1-(4-Bromophenyl)-3-[3-(4-cyanophenyl)-1-(indolin-1-yl)-1-thioxopropan-2-yl]urea]	0.04 ± 0.02	able to counterbalance the LPS-induced increase	able to counterbalance the LPS-induced increase	submicromolar concentration	0.007 ± 0.003	effectively attenuated	neither compound increased NO levels
